# Test results: PMC9404985, “Development of Dicationic Bisguanidine-Arylfuran Derivatives as Potent Agents against Gram-Negative Bacteria” (Antibiotics, 2022)
# How the values were obtained:
# [1] = system: Escherichia coli CCUG # 17620; test: MIC of established antibiotics, micro-broth dilution; conditions: CCUG17620, read-out: MIC Escherichia coli CCUG 17620
# [2] = system: Escherichia coli CCUG # 67180; test: as above; conditions: CCUG67180, read-out: MIC Escherichia coli CCUG 67180
# [3] = system: Klebsiella pneumoniae CCUG # 225T; test: as above; conditions: read-out: MIC Klebsiella pneumoniae CCUG 225T
# [4] = system: Klebsiella pneumoniae CCUG # 58547; test: as above; conditions: CCUG58547, read-out: MIC Klebsiella pneumoniae CCUG 58547
# [5] = system: Pseudomonas aeruginosa CCUG # 17619; test: as above; conditions: CCUG17619, read-out: MIC Pseudomonas aeruginosa CCUG 17619
# [6] = system: Pseudomonas aeruginosa CCUG # 59347; test: as above; conditions: CCUG59347, read-out: MIC Pseudomonas aeruginosa CCUG 59347
# [7] = system: Acinetobacter baumannii CCUG # 57250; test: as above; conditions: CCUG57250, read-out: MIC Acinetobacter baumannii CCUG 57250
# [8] = system: Acinetobacter baumannii CCUG # 57035; test: as above; conditions: CCUG57035, read-out: MIC Acinetobacter baumannii CCUG 57035
# [9] = system: Enterobacter hormaechei CCUG # 58962; test: as above; conditions: CCUG58962, read-out: MIC Enterobacter hormaechei CCUG 58962
# [10] = Cytotoxicity assay (PrestoBlue) MCF-7; type: cell-based; conditions: human, MCF-7 cells (breast cancer cell line), 24 h incubation
# Description: (§1) The cytotoxicity levels of all compounds were evaluated against human Michigan Cancer Foundation-7 (MCF-7) and Hepatoma G2 cell line (HepG2) cell lines. MCF-7 is an extensively characterized breast cancer cell line isolated in 1970 [41], while HepG2 cells were derived from a hepatoma in 1975 [42]. Both cell lines grow robustly during in vitro culture and have been widely used for cytotoxicity testing. Cells of hepatic origin, such as HepG2, are of particular relevance for toxicity studies as many drugs accumulate in the liver during metabolic conversion. Cells were grown in Dulbecco’s Modified Eagle Medium supplemented with 10% fetal calf serum and kept in exponential growth, as previously reported. Before the assay, cells were reseeded into 96-well microtiter plates at a density allowing continued exponential growth and let to settle for 24 h. The compounds were added from a stock solution in DMSO, for a final concentration of 0.3% v/v of the solvent in the culture medium. After 24 h of incubation in presence of the compound, cell viability was assayed using PrestoBlue Cell Viability Reagent (resazurin-based solution, ThermoFisher, Waltham, MA, USA) according to the manufacturer’s instructions. […] Each assay contained a DMSO control at the equivalent starting concentration, positive control (uninhibited cell growth) and negative control (cell medium only). Survival was expressed as percentage of the solvent-only control. […] The Selectivity Index (SI) for each compound and bacterial strain was calculated as the ratio between the mean of the EC50 values for the two human cell lines and the EC50 for the bacterial strain in question ((EC50 MCF-7 + EC50 HepG2)/2)/EC50 bacterial strain).
# [11] = Cytotoxicity assay (PrestoBlue) HepG2; type: cell-based; conditions: human, HepG2 cells (hepatoma cell line), 24 h incubation
# Description: as §1
# [12] = system: B. subtilis (NBRC/ATCC #111470); test: Antibacterial resazurin assay, laboratory strain; conditions: for EC50 / EC90: Bacillus subtilis, ATCC111470, 18 h; for EC50: read-out: Bsu EC50; for EC90: read-out: Bsu EC90
# [13] = system: E. coli MG1655 (CGSC #6300); test: Antibacterial resazurin assay, laboratory strain; conditions: for EC50 / EC90: Escherichia coli, MG1655, 18 h; for EC50: read-out: Eco EC50; for EC90: read-out: Eco EC90; for Selectivity index E. coli: mean of MCF-7 and HepG2 EC50 over bacterial EC50, laboratory strain
# [14] = system: P. putida (NBRC/ATCC #100650); test: Antibacterial resazurin assay, laboratory strain; conditions: for EC50 / EC90: Pseudomonas putida, ATCC100650, 18 h; for EC50: read-out: Ppu EC50, laboratory strain, 18 h, 37 °C, AlamarBlue; for EC90: read-out: Ppu EC90
# [15] = system: P. carotovorum (NBRC/ATCC #3380); test: Antibacterial resazurin assay, laboratory strain; conditions: for EC50 / EC90: Pectobacterium carotovorum, ATCC3380, 18 h; for EC50: read-out: Pcar EC50, laboratory strain, 18 h, 37 °C, AlamarBlue; for EC90: read-out: Pcar EC90; for Selectivity index P. carotovorum: mean of MCF-7 and HepG2 EC50 over bacterial EC50, laboratory strain
# [16] = system: P. caledonica (NBRC/ATCC #102488); test: Antibacterial resazurin assay, laboratory strain; conditions: for EC50 / EC90: Paraburkholderia caledonica, ATCC102488, 18 h; for EC50: read-out: Pcal EC50; for EC90: read-out: Pcal EC90; for Selectivity index P. caledonica: mean of MCF-7 and HepG2 EC50 over bacterial EC50, laboratory strain
# [17] = mean of MCF-7 and HepG2 EC50 over bacterial EC50, laboratory strain
Structure (SMILES),EC50 at 24 h [10] [µM],EC50 at 24 h [11] [µM],EC50 [12] [µM],EC90 [12] [µM],EC50 [13] [µM],EC90 [13] [µM],Selectivity index E. coli [13],EC50 [14] [µM],EC90 [14] [µM],EC50 [15] [µM],EC90 [15] [µM],Selectivity index P. carotovorum [15],EC50 [16] [µM],EC90 [16] [µM],Selectivity index P. caledonica [16],also measured
O=C(O)c1cn(C2CC2)c2cc(N3CCNCC3)c(F)cc2c1=O [Ciprofloxacin],,,,,,,,,,,,,,,,MIC [1]: 0.025 µM; MIC [2]: 190 µM; MIC [3]: 0.18 µM; MIC [4]: 190 µM; MIC [5]: 1.5 to 3 µM; MIC [6]: 100 µM; MIC [7]: 200 µM; MIC [8]: 200 µM; MIC [9]: 0.1 µM
"N=C(N)Nc1ccc(-c2ccc(C(=O)N3CCc4ccccc43)o2)c(Cl)c1 [Compound 20, (5-(2-chloro-4-guanidinophenyl)furan-2-yl)(indolin-1-yl)methanone]",37.8,28.5,24.5,38.4,61.7,106,0.5,> 300,> 300,159,187,0.2,129,> 300,0.3,"Selectivity index B. subtilis [12, 17]: 1.4"
"N=C(N)Nc1ccc(-c2ccc(-c3ccc(NC(=N)N)cc3C(F)(F)F)o2)c(C(F)(F)F)c1 [Compound 5, 2,5-Bis(4-guanidino-2-trifluoromethylphenyl)furan]",23.2,69,> 300,> 300,29.4,59.1,1.6,290,319,185,233,0.2,> 300,> 300,,"Selectivity index P. putida [14, 17]: 0.2"
"Nc1c(Nc2ccc(-c3ccc(-c4ccc(Nc5c(N)c(=O)c5=O)cc4Cl)o3)c(Cl)c2)c(=O)c1=O [Compound 11, 2,5-Bis(2-chloro-4-((3,4-dioxo-2-(amino)cyclobut-1-en-1-yl)amino)phenyl)furan]",508,183,> 300,> 300,> 300,> 300,,> 300,> 300,> 300,> 300,,19,60.1,18.2,
"Nc1c(Nc2ccc(-c3ccc(-c4ccc(Nc5c(N)c(=O)c5=O)cc4)o3)cc2)c(=O)c1=O [Compound 12, 2,5-Bis(4-((3,4-dioxo-2-(amino)cyclobut-1-en-1-yl)amino)phenyl)furan]",> 1000,> 1000,> 300,> 300,> 300,> 300,,> 300,> 300,> 300,> 300,,> 300,> 300,,
